Measurements taken from patent US20260022143A1, “Cyclic Peptide Inhibitors of IL-23” (JANSSEN PHARMACEUTICA NV, priority 2022, published 2026).
Starred links: 1 amine or outer side, 2 acyl side, 3 side chain; linkers in the order of their positions; H or OH if unused. Positions of bridges follow the written chain, without caps; N, C: chain ends. Non-standard residues stand in square brackets, D forms with d. Residues, ends and D or L forms follow the SMILES beside them. *: point of attachment. Trp(7-(3-AcNH-Ph)) = CC(=O)Nc1cccc(-c2cccc3c(C[C@H](N)C(=O)O)c[nH]c23)c1; X64 = C[N+]1(C)CCN(c2ccc(C[C@H](N[*:1])C(=O)[*:2])cc2)CC1; Me3N+(CH2)2O(CH2)2O(CH2)2CO = C[N+](C)(C)CCOCCOCCC(=O)*; Trp(7-Me) = Cc1cccc2c(C[C@H](N)C(=O)O)c[nH]c12; X28 = CCCCCCCCCCCCCCCC[N+](C)(C)CCc1cn(CC*)nn1; X47 = C[N+]1(C)CC[N+]2(CCN(CC*)CC2)CC1; 2Nal = N[C@@H](Cc1ccc2ccccc2c1)C(=O)O; X45 = COCC[N+](C)(C)CCc1cn(CC*)nn1; 3Pal = N[C@@H](Cc1cccnc1)C(=O)O; X14 = C[N+](C)(C)CCc1cn(CC*)nn1; Lys(Me) = CNCCCC[C@H](N)C(=O)O; Pen = CC(C)(S)[C@H](N)C(=O)O; X38 = C[N+](C)(C)CCCCCC*; Thp = NC1(C(=O)O)CCOCC1; X3 = C[N+](C)(C)CCCCC*; Sar = CNCC(=O)O

Assays:
[1] = biological target: T1, IL-23R (Homo sapiens, UniProt Q5VWK5); experiment: IL23R Reporter Assay; format: cell-based; conditions: HEK293 cells containing IL-23R, IL-12RP1 and STAT-inducible firefly luciferase reporter; 10 ng/mL IL-23 (EC90); 5 h at 37° C.; read-out: IL23R Reporter Assay
T1 construct: host or cells: HEK293
T1 sequence (Q5VWK5 24-629): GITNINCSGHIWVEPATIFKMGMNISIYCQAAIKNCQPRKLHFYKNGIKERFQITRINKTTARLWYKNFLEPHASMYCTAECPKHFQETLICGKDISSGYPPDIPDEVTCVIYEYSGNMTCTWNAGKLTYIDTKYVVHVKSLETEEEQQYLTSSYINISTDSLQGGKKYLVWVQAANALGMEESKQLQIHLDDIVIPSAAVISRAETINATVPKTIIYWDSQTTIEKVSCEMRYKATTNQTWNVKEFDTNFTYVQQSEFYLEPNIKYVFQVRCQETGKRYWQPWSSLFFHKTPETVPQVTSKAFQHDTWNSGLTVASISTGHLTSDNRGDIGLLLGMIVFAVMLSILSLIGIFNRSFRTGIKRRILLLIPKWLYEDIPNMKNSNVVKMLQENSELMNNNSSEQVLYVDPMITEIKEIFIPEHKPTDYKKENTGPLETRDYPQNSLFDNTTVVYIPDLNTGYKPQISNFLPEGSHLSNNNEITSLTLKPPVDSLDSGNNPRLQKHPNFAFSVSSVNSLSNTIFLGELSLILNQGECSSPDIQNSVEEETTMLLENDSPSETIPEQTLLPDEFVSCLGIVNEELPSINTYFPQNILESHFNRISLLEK

[2] = Exposed Polar Surface Area (EPSA); format: physicochemical; conditions: SFC on Chirex 3014 column; sample 1 mM DMSO stock; read-out: EPSA
Procedure, shortened: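 Polarity descriptor in Å² derived from retention time using 8 calibration standards re-run every 20 compounds. Duplicate injections of 1 mM DMSO stock; linear 5–60% modifier gradient (20 mM ammonium formate in MeOH) with CO2 at 4 mL/min, 35 °C, on a Chirex 3014 column.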

IC50 [1] | EPSA [2] | Structure (SMILES)
1.4 nM | 167 A^2 | CC(=O)N(C)CCCC[C@@H]1NC(=O)[C@H](Cc2c[nH]c3c(C)cccc23)NC(=O)[C@H]([C@@H](C)O)NC(=O)[C@H](CC(=O)N(C)C)NC(=O)[C@@H](NC(=O)CCOCCOCC[N+](C)(C)C)C(C)(C)SSC(C)(C)[C@@H](C(=O)N[C@@H](Cc2ccc(OCCN3CC[N+]4(CC3)CC[N+](C)(C)CC4)cc2)C(=O)N[C@@H](Cc2ccc3ccccc3c2)C(=O)NC2(C(=O)N[C@@H](CCCCN(C)C(C)=O)C(=O)N[C@@H](CC(N)=O)C(=O)N[C@@H](Cc3cccnc3)C(=O)N(C)CC(=O)N(C)C)CCOCC2)NC1=O [compound 269, cPEG3aCO-Pen(3)-N(N(Me)2)-T-7MeW-K(NMeAc)-Pen(3)-DMTASF-2Nal-THP-K(NMeAc)-N-3Pya-Sar-CON(Me)2] ({Me3N+(CH2)2O(CH2)2O(CH2)2CO}-[Pen]D(NMe2)T[Trp(7-Me)][Lys(Me)](Ac)[Pen]Y(X47)[2Nal][Thp][Lys(Me)](Ac)N[3Pal][Sar]-NMe2; disulfide 1-6)
2.6 nM | 157 A^2 | CC(=O)N(C)CCCC[C@@H]1NC(=O)[C@H](Cc2c[nH]c3c(C)cccc23)NC(=O)[C@H]([C@@H](C)O)NC(=O)[C@H](CC(=O)N(C)C)NC(=O)[C@@H](NC(=O)CCOCCOCC[N+](C)(C)C)C(C)(C)SSC(C)(C)[C@@H](C(=O)N[C@@H](Cc2ccc(N3CC[N+](C)(C)CC3)cc2)C(=O)N[C@@H](Cc2ccc3ccccc3c2)C(=O)NC2(C(=O)N[C@@H](CCCCN(C)C(C)=O)C(=O)N[C@@H](CC(N)=O)C(=O)N[C@@H](Cc3cccnc3)C(=O)N(C)CC(=O)N(C)C)CCOCC2)NC1=O [compound 273, cPEG3aCO-Pen(3)-N(N(Me)2)-T-7MeW-K(NMeAc)-Pen(3)-PiperazinequatF-2Nal-THP-K(NMeAc)-N-3Pya-Sar-CON(Me)2] ({Me3N+(CH2)2O(CH2)2O(CH2)2CO}-[Pen]D(NMe2)T[Trp(7-Me)][Lys(Me)](Ac)[Pen][X64][2Nal][Thp][Lys(Me)](Ac)N[3Pal][Sar]-NMe2; disulfide 1-6)
3.8 nM | 148 A^2 | COCC[N+](C)(C)CCc1cn(CCOc2ccc(C[C@H](NC(=O)[C@H]3NC(=O)[C@H](CCCCN(C)C(C)=O)NC(=O)[C@H](Cc4c[nH]c5c(C)cccc45)NC(=O)[C@H]([C@@H](C)O)NC(=O)[C@H](CC(=O)N(C)C)NC(=O)[C@@H](NC(=O)CCOCCOCC[N+](C)(C)C)C(C)(C)SSC3(C)C)C(=O)N[C@@H](Cc3ccc4ccccc4c3)C(=O)NC3(C(=O)N[C@@H](CCCCN(C)C(C)=O)C(=O)N[C@@H](CC(N)=O)C(=O)N[C@@H](Cc4cccnc4)C(=O)N(C)CC(=O)N(C)C)CCOCC3)cc2)nn1 [compound 285, cPEG3aCO-Pen(3)-N(N(Me)2)-T-7MeW-K(NMeAc)-Pen(3)-Y(OTzlChmPEG)-2Nal-THP-K(NMeAc)-N-3Pya-Sar-CON(Me)2] ({Me3N+(CH2)2O(CH2)2O(CH2)2CO}-[Pen]D(NMe2)T[Trp(7-Me)][Lys(Me)](Ac)[Pen]Y(X45)[2Nal][Thp][Lys(Me)](Ac)N[3Pal][Sar]-NMe2; disulfide 1-6)
3.2 nM | 149 A^2 | CC(=O)N(C)CCCC[C@@H]1NC(=O)[C@H](Cc2c[nH]c3c(C)cccc23)NC(=O)[C@H]([C@@H](C)O)NC(=O)[C@H](CC(=O)N(C)C)NC(=O)[C@@H](NC(=O)CCOCCOCC[N+](C)(C)C)C(C)(C)SSC(C)(C)[C@@H](C(=O)N[C@@H](Cc2ccc(OCCn3cc(CC[N+](C)(C)C)nn3)cc2)C(=O)N[C@@H](Cc2ccc3ccccc3c2)C(=O)NC2(C(=O)N[C@@H](CCCCN(C)C(C)=O)C(=O)N[C@@H](CC(N)=O)C(=O)N[C@@H](Cc3cccnc3)C(=O)N(C)CC(=O)N(C)C)CCOCC2)NC1=O [compound 286, cPEG3aCO-Pen(3)-N(N(Me)2)-T-7MeW-K(NMeAc)-Pen(3)-Y(OTzlCh)-2Nal-THP-K(NMeAc)-N-3Pya-Sar-CON(Me)2] ({Me3N+(CH2)2O(CH2)2O(CH2)2CO}-[Pen]D(NMe2)T[Trp(7-Me)][Lys(Me)](Ac)[Pen]Y(X14)[2Nal][Thp][Lys(Me)](Ac)N[3Pal][Sar]-NMe2; disulfide 1-6)
24 nM | 144 A^2 | COCC[N+](C)(C)CCc1cn(C[C@H](NC(=O)[C@H]2NC(=O)[C@H](CCCCN(C)C(C)=O)NC(=O)[C@H](Cc3c[nH]c4c(C)cccc34)NC(=O)[C@H]([C@@H](C)O)NC(=O)[C@H](CC(=O)N(C)C)NC(=O)[C@@H](NC(=O)CCOCCOCC[N+](C)(C)C)C(C)(C)SSC2(C)C)C(=O)N[C@@H](Cc2ccc3ccccc3c2)C(=O)NC2(C(=O)N[C@@H](CCCCN(C)C(C)=O)C(=O)N[C@@H](CC(N)=O)C(=O)N[C@@H](Cc3cccnc3)C(=O)N(C)CC(=O)N(C)C)CCOCC2)nn1 [compound 288, cPEG3aCO-Pen(3)-N(N(Me)2)-T-7MeW-K(NMeAc)-Pen(3)-TzlChmPEG-2Nal-THP-K(NMeAc)-N-3Pya-Sar-CON(Me)2]
79 nM | 142 A^2 | COCCOCCOCC[N+](C)(C)CCc1cn(C[C@H](NC(=O)[C@H]2NC(=O)[C@H](CCCCN(C)C(C)=O)NC(=O)[C@H](Cc3c[nH]c4c(C)cccc34)NC(=O)[C@H]([C@@H](C)O)NC(=O)[C@H](CC(=O)N(C)C)NC(=O)[C@@H](NC(=O)CCOCCOCC[N+](C)(C)C)C(C)(C)SSC2(C)C)C(=O)N[C@@H](Cc2ccc3ccccc3c2)C(=O)NC2(C(=O)N[C@@H](CCCCN(C)C(C)=O)C(=O)N[C@@H](CC(N)=O)C(=O)N[C@@H](Cc3cccnc3)C(=O)N(C)CC(=O)N(C)C)CCOCC2)nn1 [compound 289, cPEG3aCO-Pen(3)-N(N(Me)2)-T-7MeW-K(NMeAc)-Pen(3)-TzlChmPEG3-2Nal-THP-K(NMeAc)-N-3Pya-Sar-CON(Me)2]
610 nM | 137 A^2 | CCCCCCCCCCCCCCCC[N+](C)(C)CCc1cn(CCOc2ccc(C[C@H](NC(=O)[C@H]3NC(=O)[C@H](CCCCN(C)C(C)=O)NC(=O)[C@H](Cc4c[nH]c5c(C)cccc45)NC(=O)[C@H]([C@@H](C)O)NC(=O)[C@H](CC(=O)N(C)C)NC(=O)[C@@H](NC(=O)CCOCCOCC[N+](C)(C)C)C(C)(C)SSC3(C)C)C(=O)N[C@@H](Cc3ccc4ccccc4c3)C(=O)NC3(C(=O)N[C@@H](CCCCN(C)C(C)=O)C(=O)N[C@@H](CC(N)=O)C(=O)N[C@@H](Cc4cccnc4)C(=O)N(C)CC(=O)N(C)C)CCOCC3)cc2)nn1 [compound 291, cPEG3aCO-Pen(3)-N(N(Me)2)-T-7MeW-K(NMeAc)-Pen(3)-Y(OTzlChC16)-2Nal-THP-K(NMeAc)-N-3Pya-Sar-CON(Me)2] ({Me3N+(CH2)2O(CH2)2O(CH2)2CO}-[Pen]D(NMe2)T[Trp(7-Me)][Lys(Me)](Ac)[Pen]Y(X28)[2Nal][Thp][Lys(Me)](Ac)N[3Pal][Sar]-NMe2; disulfide 1-6 (inferred))
3.2 nM | 149 A^2 | CC(=O)N(C)CCCC[C@@H]1NC(=O)[C@H](Cc2c[nH]c3c(C)cccc23)NC(=O)[C@H]([C@@H](C)O)NC(=O)[C@H](CC(=O)N(C)C)NC(=O)[C@@H](NC(=O)CCOCCOCC[N+](C)(C)C)C(C)(C)SSC(C)(C)[C@@H](C(=O)N[C@@H](Cc2ccc(OCCCCCC[N+](C)(C)C)cc2)C(=O)N[C@@H](Cc2ccc3ccccc3c2)C(=O)NC2(C(=O)N[C@@H](CCCCN(C)C(C)=O)C(=O)N[C@@H](CC(N)=O)C(=O)N[C@@H](Cc3cccnc3)C(=O)N(C)CC(=O)N(C)C)CCOCC2)NC1=O [compound 293, cPEG3aCO-Pen(3)-N(N(Me)2)-T-7MeW-K(NMeAc)-Pen(3)-TMA6F-2Nal-THP-K(NMeAc)-N-3Pya-Sar-CON(Me)2] ({Me3N+(CH2)2O(CH2)2O(CH2)2CO}-[Pen]D(NMe2)T[Trp(7-Me)][Lys(Me)](Ac)[Pen]Y(X38)[2Nal][Thp][Lys(Me)](Ac)N[3Pal][Sar]-NMe2; disulfide 1-6)
1.2 nM | 157 A^2 | CC(=O)Nc1cccc(-c2cccc3c(C[C@@H]4NC(=O)[C@H]([C@@H](C)O)NC(=O)[C@H](CC(=O)N(C)C)NC(=O)[C@@H](NC(=O)CCOCCOCC[N+](C)(C)C)C(C)(C)SSC(C)(C)[C@@H](C(=O)N[C@@H](Cc5ccc(OCCCCC[N+](C)(C)C)cc5)C(=O)N[C@@H](Cc5ccc6ccccc6c5)C(=O)NC5(C(=O)N[C@@H](CCCCN(C)C(C)=O)C(=O)N[C@@H](CC(N)=O)C(=O)N[C@@H](Cc6cccnc6)C(=O)N(C)CC(=O)N(C)C)CCOCC5)NC(=O)[C@H](CCCCN(C)C(C)=O)NC4=O)c[nH]c23)c1 [compound 294, cPEG3aCO-Pen(3)-N(N(me)2)-T-7(3NAcPh)W-K(NMeAc)-Pen(3)-TMAPF-2Nal-THP-K(NMeAc)-N-3Pya-Sar-CON(Me)2] ({Me3N+(CH2)2O(CH2)2O(CH2)2CO}-[Pen]D(NMe2)T[Trp(7-(3-AcNH-Ph))][Lys(Me)](Ac)[Pen]Y(X3)[2Nal][Thp][Lys(Me)](Ac)N[3Pal][Sar]-NMe2; disulfide 1-6 (inferred))
